The values that follow come from article PMC12808100, “The non-catalytic DNA polymerase ε subunit is an NPF motif recognition protein” (Nature Communications, 2025).

In experiment [1] the target is T1, EHD4 (Homo sapiens, UniProt Q9H223).
T1 sequence (Q9H223 1-541): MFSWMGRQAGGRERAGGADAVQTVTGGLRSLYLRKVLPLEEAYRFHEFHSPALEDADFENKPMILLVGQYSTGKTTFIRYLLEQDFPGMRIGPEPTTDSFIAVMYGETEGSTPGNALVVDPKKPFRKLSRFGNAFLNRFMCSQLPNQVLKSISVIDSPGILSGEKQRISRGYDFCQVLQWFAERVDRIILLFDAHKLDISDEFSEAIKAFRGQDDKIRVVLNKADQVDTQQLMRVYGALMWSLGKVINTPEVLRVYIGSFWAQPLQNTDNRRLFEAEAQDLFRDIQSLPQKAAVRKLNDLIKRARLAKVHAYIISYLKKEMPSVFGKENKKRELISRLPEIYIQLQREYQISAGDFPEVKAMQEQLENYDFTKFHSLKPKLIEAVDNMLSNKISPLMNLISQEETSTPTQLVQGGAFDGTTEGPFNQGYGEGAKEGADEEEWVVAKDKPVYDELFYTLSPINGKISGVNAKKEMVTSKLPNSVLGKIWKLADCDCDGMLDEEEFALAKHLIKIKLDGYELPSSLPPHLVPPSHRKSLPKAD
Kind of experiment: nHU-MS peptide bait, prey EHD4. The following applies: FigureS2 Volcano; prey EHD4.

The target in experiment [2] is T2, GYPC (Homo sapiens, UniProt P04921).
T2 sequence (P04921 1-128): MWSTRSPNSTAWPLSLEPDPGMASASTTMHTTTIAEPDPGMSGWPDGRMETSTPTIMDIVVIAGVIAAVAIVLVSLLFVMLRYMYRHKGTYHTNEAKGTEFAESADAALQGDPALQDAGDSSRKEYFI
Kind of experiment: nHU-MS peptide bait, prey GYPC. The following applies: FigureS2 Volcano; prey GYPC.

Experiment [3] concerns endogenous proteins of Jurkat extract. Kind of experiment: Single-point nHU-MS with biotinylated NPF motif peptide baits, proteome-wide. Format: binding, human. The following applies: FigureS2 Volcano; prey WASHC3. From the text:
To identify the partners of NPF motifs, we used the native holdup (nHU) assay that was recently developed by our team (Fig. 1B). The holdup approach has been extensively used to determine equilibrium dissociation constants of transient interactions mediated by PDZ and SH3 domains, 14-3-3, and human papilloma virus E6 proteins, and even nucleic acid-protein interactions[7],[30]–[35]. In the nHU experiments, a purified bait molecule, or a control compound, is immobilized on a resin at high concentration (typically 10 μM, or higher) and these resin stocks are subsequently mixed with dilute cell extracts. […] This liquid phase contains the unbound prey molecules at near binding equilibrium that can be quantified using selective and quantitative analytical approaches, such as mass spectrometry. Therefore, proteins that interact with the bait molecule will appear to be depleted in the solvent phase and by measuring its relative concentration compared to the control nHU experiment, the degree of binding (θ) can be determined that can be converted to apparent steady-state dissociation constants, according to:1 θ=1−Ifree/Itot=Cbait/Cbait+Kapp where Itot and Ifree are the measured total and bait-depleted equilibrium mass spectrometry total ion intensities of prey proteins, Cbait is the bait molecule concentration and Kapp is the apparent dissociation constant. […]

For experiment [4], the target named is His6-avi-MBP-tagged POLE2. Kind of experiment: Single-point nHU-MS with recombinant His6-avi-MBP-POLE2 bait, Jurkat extract. Format: binding, human. The following applies: significant apparent affinity of endogenous prey protein for POLE2 bait; single-point nHU-MS; Figure S11. The text has this:
So far, our study only focused on a few hand-picked NPF motifs and studied them as short synthetic peptides. However, many other proteins may be present in the proteome that could bind to POLE2 and their putative NPF motifs are embedded in their natural structures that can greatly affect their binding properties. To investigate interactions between POLE2 and intact, full length proteins proteome-wide, we used nHU-MS experiments with recombinant His6-avi-MBP-tagged POLE2 as bait and purified His6-avi-MBP as a control. Even though we are aware that this recombinant POLE2 may bind to NPF motifs with a somewhat altered affinity, we assumed that this would affect all NPF motif-mediated interactions equally, allowing an unbiased affinity ranking of all identified partners. Single point nHU measurements were performed at 26 μM POLE2 concentration and the recovered supernatant was measured by label free proteomic MS measurements (Fig. 3A, Supplementary Figs. 8A, 9, Supplementary Data 1).
Single-point nHU experiments with protein baits were carried out nearly identically with two key modifications. First, the resin saturation step was carried out by mixing 50 μl streptavidin resin with 0.5−1 ml 50 μM biotinylated protein solution and the mixture was incubated for 1.5 h at 4 °C with constant agitation. Second, instead of using estimated bait concentrations, we measured it experimentally. An extra aliquot of resin stock was prepared alongside the nHU samples that were identically processed that were used to eluate the immobilized proteins under harsh conditions, in order to experimentally quantify the Cbait by using densitometry of Coomassie stained SDS-PAGE that included a protein calibration series. For this, 50 μl bait-saturated resin aliquots were mixed with 200 μl 4x Laemmli Sample Buffer (120 mM Tris-HCl pH 7, 8% SDS, 100 mM DTT, 32% glycerol, 0.004% bromphenol blue, 1% β-mercaptoethanol), instead of cell extract. After 15 min incubation at 95 °C, these samples were analyzed by SDS-PAGE using protein calibration standard, made from recombinant MBP. Densitometry was carried out after Coomassie staining on raw Tif images by using Fiji ImageJ 1.53c and experimental bait concentration were determined by adjusting for molecular weight differences between MBP and MBP-POLE2 constructs.
Samples were digested overnight at 37 °C.

The target of experiment [5] is T3, UBE2N (Homo sapiens, UniProt P61088).
T3 sequence (P61088 1-152): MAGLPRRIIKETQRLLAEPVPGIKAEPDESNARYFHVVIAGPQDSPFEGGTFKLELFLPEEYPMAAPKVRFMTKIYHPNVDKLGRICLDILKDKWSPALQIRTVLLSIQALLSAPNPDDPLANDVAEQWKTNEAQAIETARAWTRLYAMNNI
Kind of experiment: nHU-MS peptide bait, prey UBE2N. The following applies: FigureS2 Volcano; prey UBE2N.

Regarding NSVD [WDHD1], the “-log10P” value in experiment [1] is 4.524; in experiment [2] it was 4.7052; in experiment [5], 4.615. Also, the log2FC in experiment [1] is -0.6115; in experiment [2], -0.6216; in experiment [3], -0.6642; in experiment [5], -0.5674. Besides, the pKapp_sign in experiment [4] is recorded as 5.025.
